How the values were obtained:
[1] = in vitro; conditions: human, uninfected MT-4 cells, CC50 (nM), same protocol as Test A, CellTiter-Glo
How it was run: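 Cytoprotection read-out: CellTiter-Glo chemiluminescence after 5 days at 37 °C of HIV-IIIb-infected MT-4 cells (m.o.i. 0.003) with compound in 10-point 3-fold dilutions, quadruplicate, 10% FBS. Cytotoxicity (CC50) measured identically without virus.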

[2] = tested on: HIV-IIIb; assay: Test A: Antiviral assay in MT4 cells; format: cell-based, HIV-1; conditions: Human immunodeficiency virus 1, IIIB, MT4, 120 h, read-out: % inhibition at 2 μM, percent inhibition of virus-induced cell killing, from dose response curve at 2 uM drug; MT-4 cells infected with HIV-IIIb, 5 days, CellTiter-Glo

Row | SMILES | CC50 at 5 days [1] | inhibition at 2 µM [2]
1 | CC1CCCc2c1c(C(F)(F)F)nn2CC(=O)N[C@@H](Cc1cc(F)cc(F)c1)c1ncccc1-c1ccc(F)c(C(N)=O)c1 (stereo partly drawn) [Example 272F, 5-(2-((1S)-2-(3,5-difluorophenyl)-1-(2-(4-methyl-3-(trifluoromethyl)-4,5,6,7-tetrahydro-1H-indazol-1-yl)acetamido)ethyl)pyridin-3-yl)-2-fluorobenzamide] | 14300 nM | 92%
2 | NC(=O)c1cc(-c2cccnc2[C@H](Cc2cc(F)cc(F)c2)NC(=O)Cn2nc(C(F)(F)F)c3c2C(=O)CCC3)ccc1F [Example 273, (S)-5-(2-(2-(3,5-difluorophenyl)-1-(2-(7-oxo-3-(trifluoromethyl)-4,5,6,7-tetrahydro-1H-indazol-1-yl)acetamido)ethyl)pyridin-3-yl)-2-fluorobenzamide] | 29600 nM | 10%
3 | CC(C)(C)OC(=O)N1CCc2c(c(C(F)(F)F)nn2CC(=O)N[C@@H](Cc2cc(F)cc(F)c2)c2ncccc2-c2ccc(F)c(C(N)=O)c2)C1 [Example 274, (S)-tert-butyl 1-(2-(1-(3-(3-carbamoyl-4-fluorophenyl)pyridin-2-yl)-2-(3,5-difluorophenyl)ethylamino)-2-oxoethyl)-3-(trifluoromethyl)-6,7-dihydro-1H-pyrazolo[4,3-c]pyridine-5(4H)-carboxylate] | 11000 nM | 0%
4 | Cc1c(Br)c(C(F)(F)F)nn1CC(=O)N[C@@H](Cc1cc(F)cc(F)c1)c1ncccc1-c1ccc(F)c(C(N)=O)c1 [Example 275, (S)-5-(2-(1-(2-(4-bromo-5-methyl-3-(trifluoromethyl)-1H-pyrazol-1-yl)acetamido)-2-(3,5-difluorophenyl)ethyl)pyridin-3-yl)-2-fluorobenzamide] | 16900 nM | 53%
5 | NC(=O)c1cc(-c2cccnc2[C@H](Cc2cc(F)cc(F)c2)NC(=O)Cn2cc(C3CC3)c(C(F)(F)F)n2)ccc1F [Example 276, (S)-5-(2-(1-(2-(4-cyclopropyl-3-(trifluoromethyl)-1H-pyrazol-1-yl)acetamido)-2-(3,5-difluorophenyl)ethyl)pyridin-3-yl)-2-fluorobenzamide] | 16900 nM | 29%
6 | NC(=O)c1cc(-c2cccnc2[C@H](Cc2cc(F)cc(F)c2)NC(=O)Cn2nc(C(F)(F)F)c3c2CCCC32CC2)ccc1F [Example 277B, (S)-5-(2-(2-(3,5-difluorophenyl)-1-(2-(3′-(trifluoromethyl)-6′,7′-dihydrospiro[cyclopropane-1,4′-indazole]-1′(5′H)-yl)acetamido)ethyl)pyridin-3-yl)-2-fluorobenzamide] | 19300 nM | 96%
7 | Cc1cc2ncn(CC(=O)N[C@@H](Cc3cc(F)cc(F)c3)c3ncccc3-c3cccc(C(N)=O)c3)c2cc1C [Example 278, (S)-3-(2-(2-(3,5-difluorophenyl)-1-(2-(5,6-dimethyl-1H-benzo[d]imidazol-1-yl)acetamido)ethyl)pyridin-3-yl)benzamide] | 8530 nM | 121%
8 | Cc1cc2ncn(CC(=O)N[C@H](Cc3cc(F)cc(F)c3)c3ncncc3-c3ccc(Cl)cc3)c2cc1C [Example 279G, (R)—N-(1-(5-(4-chlorophenyl)pyrimidin-4-yl)-2-(3,5-difluorophenyl)ethyl)-2-(5,6-dimethyl-1H-benzo[d]imidazol-1-yl)acetamide] | 9300 nM | 82%
9 | CCc1c(C#CC(C)(C)C)c(C(F)(F)F)nn1CC(=O)N[C@@H](Cc1cc(F)cc(F)c1)c1ncccc1-c1ccc(F)c(C(N)=O)c1 [Example 280, (S)-5-(2-(2-(3,5-difluorophenyl)-1-(2-(4-(3,3-dimethylbut-1-ynyl)-5-ethyl-3-(trifluoromethyl)-1H-pyrazol-1-yl)acetamido)ethyl)pyridin-3-yl)-2-fluorobenzamide] | 4180 nM | 0%
10 | NC(=O)c1cc(-c2cccnc2[C@H](Cc2cc(F)cc(F)c2)NC(=O)Cn2nc(C(F)(F)F)c3c2C(=O)CC3)ccc1F [Example 281C, (S)-5-(2-(2-(3,5-difluorophenyl)-1-(2-(6-oxo-3-(trifluoromethyl)-5,6-dihydrocyclopenta[c]pyrazol-1(4H)-yl)acetamido)ethyl)pyridin-3-yl)-2-fluorobenzamide] | 28300 nM | 5%
11 | NC(=O)c1cc(-c2cccnc2[C@H](Cc2cc(F)cc(F)c2)NC(=O)COc2cc[nH]c(=O)c2)ccc1F [Example 282, (S)-5-(2-(2-(3,5-difluorophenyl)-1-(2-(2-oxo-1,2-dihydropyridin-4-yloxy)acetamido)ethyl)pyridin-3-yl)-2-fluorobenzamide] | > 53200 nM | 0%
12 | NC(=O)c1cc(-c2cccnc2[C@H](Cc2cc(F)cc(F)c2)NC(=O)Cn2nc(C(F)(F)F)c3c2C(F)(F)CC3)ccc1F [Example 283C, (S)-5-(2-(1-(2-(6,6-difluoro-3-(trifluoromethyl)-5,6-dihydrocyclopenta[c]pyrazol-1(4H)-yl)acetamido)-2-(3,5-difluorophenyl)ethyl)pyridin-3-yl)-2-fluorobenzamide] | 24400 nM | 65%
13 | NC(=O)c1cc(-c2cccnc2[C@H](Cc2cc(F)cc(F)c2)NC(=O)Cn2nc(C(F)F)c3c2C(F)(F)CCC3=O)ccc1F [Example 285G, (S)-5-(2-(1-(2-(3-(difluoromethyl)-7,7-difluoro-4-oxo-4,5,6,7-tetrahydro-1H-indazol-1-yl)acetamido)-2-(3,5-difluorophenyl)ethyl)pyridin-3-yl)-2-fluorobenzamide] | 48500 nM | 58%
14 | O=C(Cn1cnc2c1CCCC2)N[C@@H](Cc1cc(F)cc(F)c1)c1ncccc1Br [Example 286, (S)—N-(1-(3-bromopyridin-2-yl)-2-(3,5-difluorophenyl)ethyl)-2-(4,5,6,7-tetrahydro-1H-benzo[d]imidazol-1-yl)acetamide] | 25200 nM | 0%
15 | CNc1ccc(-c2cccnc2[C@H](Cc2cc(F)cc(F)c2)NC(=O)Cn2nc(C(F)F)c3c2C(F)(F)CCC3(F)F)cn1 [Example 287E, (S)-2-(3-(difluoromethyl)-4,4,7,7-tetrafluoro-4,5,6,7-tetrahydro-1H-indazol-1-yl)-N-(2-(3,5-difluorophenyl)-1-(6′-(methylamino)-3,3′-bipyridin-2-yl)ethyl)acetamide] | 16000 nM | 98%
16 | O=C(Cn1nc(C(F)F)c2c1C(F)(F)CCC2(F)F)N[C@@H](Cc1cc(F)cc(F)c1)c1ncncc1-c1cnc2[nH]ccc2c1 [Example 288, (S)—N-(1-(5-(1H-pyrrolo[2,3-b]pyridin-5-yl)pyrimidin-4-yl)-2-(3,5-difluorophenyl)ethyl)-2-(3-(difluoromethyl)-4,4,7,7-tetrafluoro-4,5,6,7-tetrahydro-1H-indazol-1-yl)acetamide] | 16400 nM | 108%
17 | CCOC(=O)c1cn(CC(=O)N[C@@H](Cc2cc(F)cc(F)c2)c2ncccc2-c2ccc(F)c(C(N)=O)c2)nc1C(F)(F)F [Example 289, (S)-ethyl 1-(2-(1-(3-(3-carbamoyl-4-fluorophenyl)pyridin-2-yl)-2-(3,5-difluorophenyl)ethylamino)-2-oxoethyl)-3-(trifluoromethyl)-1H-pyrazole-4-carboxylate] | 26400 nM | 2%
18 | CCc1c(-c2ccccc2)c(C(F)(F)F)nn1CC(=O)N[C@@H](Cc1cc(F)cc(F)c1)c1ncccc1-c1ccc(F)c(C(N)=O)c1 [Example 290, (S)-5-(2-(2-(3,5-difluorophenyl)-1-(2-(5-ethyl-4-phenyl-3-(trifluoromethyl)-1H-pyrazol-1-yl)acetamido)ethyl)pyridin-3-yl)-2-fluorobenzamide] | 11500 nM | 4%
19 | Cc1c(C2CC2)c(C(F)(F)F)nn1CC(=O)N[C@@H](Cc1cc(F)cc(F)c1)c1ncccc1-c1ccc(F)c(C(N)=O)c1 [Example 291, (S)-5-(2-(1-(2-(4-cyclopropyl-5-methyl-3-(trifluoromethyl)-1H-pyrazol-1-yl)acetamido)-2-(3,5-difluorophenyl)ethyl)pyridin-3-yl)-2-fluorobenzamide] | 16500 nM | 86%
20 | NC(=O)c1cc(-c2cccnc2[C@H](Cc2cc(F)cc(F)c2)NC(=O)Cn2cc(CO)c(C(F)(F)F)n2)ccc1F [Example 292, (S)-5-(2-(2-(3,5-difluorophenyl)-1-(2-(4-(hydroxymethyl)-3-(trifluoromethyl)-1H-pyrazol-1-yl)acetamido)ethyl)pyridin-3-yl)-2-fluorobenzamide] | > 53200 nM | 1%
21 | O=C(Cc1c[nH]c2ccc(F)cc12)N[C@H](Cc1cc(F)cc(F)c1)c1ncncc1-c1ccc(Cl)cc1 [Example 293, (R)—N-(1-(5-(4-chlorophenyl)pyrimidin-4-yl)-2-(3,5-difluorophenyl)ethyl)-2-(5-fluoro-1H-indol-3-yl)acetamide] | 11200 nM | 44%
22 | NC(=O)c1cc(-c2cccnc2[C@H](Cc2cc(F)cc(F)c2)NC(=O)Cc2c[nH]c3ccc(F)cc23)ccn1 [Example 294, (S)-2-(2-(3,5-difluorophenyl)-1-(2-(5-fluoro-1H-indol-3-yl)acetamido)ethyl)-3,4′-bipyridine-2′-carboxamide] | 20500 nM | 114%
23 | NS(=O)(=O)c1cccc(-c2cncnc2[C@H](Cc2cc(F)cc(F)c2)NC(=O)Cc2c[nH]c3ccc(O)cc23)c1 [Example 295B, (S)—N-(2-(3,5-difluorophenyl)-1-(5-(3-sulfamoylphenyl)pyrimidin-4-yl)ethyl)-2-(5-hydroxy-1H-indol-3-yl)acetamide] | > 53200 nM | 99%
